Data as given in US7968744B2, “Physiological coolants based on lactoyl esters of menthyl lactate” (Renessenz, LLC, priority 2007, dated 2011).

System: mouth (panel of three flavorists)
Assay: Sensory evaluation of cooling strength by a panel of three flavorists
Format: in vivo
Conditions: for Cooling strength score of reference standards: reference standards on the scale of 1 to 10, 10 being the strongest
Procedure: The sensory properties of crystalline MLL and liquid products that contain MLL (from Examples 1-5, above) are evaluated by a panel of three flavorists. The standard method involves holding an aqueous solution containing 20 ppm of coolant in the mouth for 30 seconds, then spitting it out and observing and quantifying the cooling effect when compared with a set of reference standards. Based on their cooling strength, the samples are scored on a scale of 1 to 10, with 10 being the strongest. Samples used as reference standards are to monomenthyl glutarate (3.5 on this scale), l-menthyl lactate (4.5) and N-ethyl-3-p-menthane carboxamide, i.e., WS-3 (10). Several coolant “cocktails,” i.e., liquid coolant-mixtures, are prepared, and their sensory properties are evaluated as in Example 6. The compositions and results appear in Table 2.

Compound: CC(C)[C@@H]1CC[C@@H](C)C[C@H]1OC(=O)[C@H](C)OC(=O)[C@H](C)O [Example 6, l-menthyl L-lactoyl-L-lactate]
- Score (cooling strength) (aqueous solution containing 20 ppm of coolant held in the mouth for 30 seconds, scale of 1 to 10, 10 being the strongest, Table 1): 4.0
- Cooling strength compared with reference coolants (in words) (sensory evaluation): intermediate between that of l-menthyl lactate and monomenthyl glutarate

Compound: CCNC(=O)C1CC(C)CCC1C(C)C (centres unmarked) [WS-3, N-ethyl-3-p-menthane carboxamide]
- Cooling strength score of reference standards: 10

Compound: CC(C)[C@@H]1CC[C@@H](C)C[C@H]1OC(=O)[C@H](C)O [l-menthyl lactate]
- Cooling strength score of reference standards: 4.5

Compound: CC(C)[C@@H]1CC[C@@H](C)C[C@H]1OC(=O)CCCC(=O)O [monomenthyl glutarate]
- Cooling strength score of reference standards: 3.5
